Laboratory results: paper PMC7927014, “Novel Small Molecule Hsp90/Cdc37 Interface Inhibitors Indirectly Target K-Ras-Signaling” (Cancers, 2021)
Each block holds one molecule with its values, some of them ahead of it.

Tests used:
[1] = system: Hsp90 clients (C-Raf, Akt, ERK); assay: Western blotting of Hsp90 client proteins; type: cell-based; details: Western blot, 24 h; SK-BR-3, MDA-MB-231, MIA PaCa-2, HCC-44 (conglobatin A: MDA-MB-231)
Procedure: The cells were trypsinized, washed with PBS, and lysed in RIPA buffer (cat no. 89900, ThermoFisher Scientific) containing protease and phosphatase inhibitors (cat. no. A32959, ThermoFisher Scientific) and 1 mM phenylmethylsulfonyl fluoride (PMSF). The cells in the RIPA buffer were placed on ice for 20 min, and were then sonicated in ice cold water for 5 min. The lysates were centrifuged at 4 °C, and their protein was quantified using a BCA kit (cat. no. 23225, ThermoFisher Scientific). Equal amounts of protein were separated by 10% SDS-PAGE, and were then transferred onto a nitrocellulose membrane (cat. no. NBA 083C001EA, Protran) using a wet transfer system (Bio-Rad) or semidry Transferblot Turbo Transfer System (Bio-Rad). After the transfer, the membranes were blocked for 30 min in 5% skimmed milk dissolved in 1× TBST, and then incubated with 1:2000 primary antibodies in 5% BSA in TBST at 4 °C overnight.
The primary antibodies against HER-2 (cat no. MA5-140579) and Hsp70 (cat. no. MA3-006) were purchased from ThermoFisher Scientific; C-Raf (cat. no. sc-133); the galectin-3 (cat. no. sc-20157), Hsp90 (cat. no. sc-69703), Cdc37 (cat. no. sc-13129) were obtained from Santa Cruz Biotechnology; the Akt (cat. no. 9272S), ERK1/2 (cat. no. 9102S), and pERK1/2 (cat. no. 9101S) were obtained from Cell Signaling Technology; the HIF-1α (cat. no. NB-100-134) was obtained from Novus Biologicals; and the β-actin (cat. no. A1978) was obtained from Sigma-Aldrich.
The next day, the membranes were washed three times in TBST for 10 min, and then incubated with secondary antibodies (1:5000) diluted in 5% skimmed milk in TBST for 1 h at RT. As secondary antibodies, we employed HRP-conjugated anti-mouse (cat. no. sc-2954, Santa Cruz Biotechnology) and anti-rabbit antibodies (cat. no. HAF008, R&D System). The protein bands were detected with a ChemiDoc MP instrument (Bio-Rad) after treatment with an ECL reagent (cat. no. 170-5061, BioRad). All of the antigens and molecular weights in kDa are labelled next to the blots on the figures. Uncropped Western blot data are attached as Figure S6.

[2] = system: MDA-MB-231 cells; assay: 2D cell proliferation (alamarBlue); type: cell-based; details: Homo sapiens, MDA-MB-231, 72 h
Procedure: Per well, 500–700 cells were seeded in 96-well flat bottom culture plates in 100 µL. After 24 h, the cells were treated with 0.1% DMSO vehicle control or test compounds diluted in a medium using a 1:2 dilution-series, starting at 100 µM. The plates were further incubated for 72 h. The cell viability was measured after the addition of 10% alamarBlue reagent per well (cat. no. DAL1100, Thermo Fisher Scientific). The fluorescence intensity (excitation 560 nm and emission 590 nm) was measured after 4 h by the use of a H1 Hybrid Multi-Mode reader.

[3] = system: MDA-MB-231 microtumors; assay: Chick chorioallantoic membrane (CAM) microtumor assay; type: in vivo, chick embryo; details: 5 days
Procedure: The fertilized eggs were incubated at 37 °C in a 55% to 60% humidified egg hatcher incubator (MG100, Fiem). After 8 days, 2 million MDA-MB-231 cells were resuspended in 1× PBS and Matrigel (BD Biosciences) at a ratio of 1:1, and were then deposited within sterilized 7 mm diameter plastic rings cut from a plastic pipette (cat. no. LW4111, Alpha Laboratories Limited) on a surface of chicken embryo CAM. The xenografted tumors were treated with 20 µL 0.1% DMSO vehicle control or the test compound diluted in 1× PBS once a day, starting from 24 h after cell seeding. The microtumors were harvested after 5 days of treatment. The microtumors were collected in pre-weighted 1.5 mL Eppendorf tubes containing 500 µL PBS, and the tumor mass was determined by the difference of the weights.

[4] = biological target: T1, N-Hsp90/Cdc37 (Homo sapiens, UniProt P07900); assay: N-Hsp90/Cdc37 split Renilla luciferase assay (N-terminal Hsp90 fragment, residues 1-223); type: biochemical; details: cell lysate
T1 construct: only the N-terminal ATP-ase domain of Hsp90 (N-Hsp90, residues 1-223); expressed in transfected cells; host or cells: HEK293 EBNA cells, cleared lysates
Procedure: The Hsp90/Cdc37 split Renilla luciferase assay using the full length Hsp90 for the compound screening was described previously. […] After 48 h, the cells were trypsinized and washed with PBS. The harvested cells were lysed in 1 mL of the 1x lysis buffer provided in the Renilla Luciferase Reporter Assay System Kit from Promega (cat. E2820), and were incubated on ice for 10 min. The cell lysates were then cleared by centrifugation at 13,000× g for 1 min. […] After this, the screening/test compounds or DMSO—as indicated—were added to each well. In total, 5 µL NRL-Hsp90- or NRL-N-Hsp90-lysate was added to each well, one row at a time. Subsequently, the plate was incubated for 5 min at room temperature (RT). […] Just before the reading, 20 µL assay buffer containing 2× Renilla luciferase substrate (coelenterazine) was added. For the FIMM screening, sample wells were read on a PHERAstar plate reader (BMG LABTECH) at a gain level of 4000, after 10 s shaking, using a hypomorph of NRL-Hsp90. For the subsequent validations of the compounds, sample wells with the above-described assay constructs were read using a synergy H1 Hybrid Multi-Mode reader (BioTek) in the luminescence detection mode, as described previously in detail.

SMILES: C/C1=C\[C@H](C)C[C@H](C)[C@H](Cc2cnco2)OC(=O)/C(C)=C/[C@H](C)C[C@H](C)[C@H](Cc2cnco2)OC1=O [conglobatin A, reference compound]
expression of Hsp90 clients (C-Raf, Akt, ERK; pERK) [1]: decreased pERK and Akt levels | IC50 [2]: 32 ± 2 µM | microtumor growth on CAM ([3]; MDA-MB-231, 10 μM): significantly reduced | IC50 [4]: 4.5 ± 0.8 µM

IC50 [2]: 32.6 ± 0.5 µM | IC50 [4]: 4.1 ± 0.4 µM
SMILES: N=C(CSS(=O)(=O)O)NCC12CC3CC(CC(C3)C1)C2 [×6506, [({N-[(adamantan-1-yl)methyl]carbamimidoyl}methyl)sulfanyl]sulfonic acid]
expression of Hsp90 clients (C-Raf, Akt, ERK; pERK) [1]: dose-dependently decreased | microtumor growth on CAM ([3]; MDA-MB-231, 20 μM): significantly reduced

SMILES: CCOc1ccc(C(=O)c2ccc(O)c(O)c2O)cc1 [×1540, 2,3,4-TRIHYDROXY-4'-ETHOXYBENZOPHENONE]
expression of Hsp90 clients (C-Raf, Akt, ERK; pERK) [1]: dose-dependently decreased | IC50 [2]: 29 ± 3 µM | microtumor growth on CAM ([3]; MDA-MB-231, 20 μM): significantly reduced | IC50 [4]: 44 ± 9 µM
